Source: PubChem BioAssay AID434951 (Broad Institute, 2010)
The source made the active and inactive calls.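 Rule for the calls: active = a fitted half-maximal concentration EC50 for the rise in nuclear signal no higher than ten times the top dose tested; inconclusive = flat fit with activity between 30% and 70%, or unusable fit; inactive = EC50 beyond ten times the top dose.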

Molecular target: Hypoxia-inducible factor 1-alpha (Homo sapiens) (UniProt Q16665)
Experiment: activators of HIF1alpha nuclear accumulation, confirmation, imaging, fluorescence, U2OS GFP-HIF1alpha (AID 434951)
Conditions: U2OS GFP-HIF1alpha nuclear intensity, high-content imaging

Hypoxia-inducible factor 1-alpha (Homo sapiens), sequence (Q16665 whole entry, looked up): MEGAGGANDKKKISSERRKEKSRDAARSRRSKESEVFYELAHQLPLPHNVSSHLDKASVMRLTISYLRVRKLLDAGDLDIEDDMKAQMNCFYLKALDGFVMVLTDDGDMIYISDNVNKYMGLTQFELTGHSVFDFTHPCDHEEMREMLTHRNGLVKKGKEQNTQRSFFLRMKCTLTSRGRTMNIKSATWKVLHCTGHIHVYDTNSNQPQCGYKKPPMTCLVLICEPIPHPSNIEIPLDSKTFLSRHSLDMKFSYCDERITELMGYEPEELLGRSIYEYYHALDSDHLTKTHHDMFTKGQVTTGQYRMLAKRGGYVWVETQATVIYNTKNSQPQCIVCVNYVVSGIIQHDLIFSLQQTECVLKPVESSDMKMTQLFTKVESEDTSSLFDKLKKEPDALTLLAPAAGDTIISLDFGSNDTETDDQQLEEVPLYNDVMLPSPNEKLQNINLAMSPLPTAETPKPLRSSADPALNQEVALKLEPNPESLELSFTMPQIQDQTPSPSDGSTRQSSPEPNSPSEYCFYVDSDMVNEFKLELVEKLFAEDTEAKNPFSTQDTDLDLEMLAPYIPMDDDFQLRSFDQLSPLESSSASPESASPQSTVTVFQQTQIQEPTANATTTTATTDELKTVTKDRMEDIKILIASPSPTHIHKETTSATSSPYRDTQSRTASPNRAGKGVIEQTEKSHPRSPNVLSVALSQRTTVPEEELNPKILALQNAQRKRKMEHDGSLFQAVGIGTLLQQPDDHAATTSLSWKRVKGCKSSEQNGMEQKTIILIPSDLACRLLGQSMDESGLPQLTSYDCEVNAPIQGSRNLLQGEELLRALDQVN

Structure (SMILES) | EC50
Cc1ccc(N=Nc2ccc(O)c(/C=N\NC(=O)c3ccc(N)cc3)c2)cc1C | > 35 µM (inactive)
COc1cc(CC(=O)Nc2ccc(Cl)c(C(F)(F)F)c2)cc(OC)c1OC | > 35 µM (inactive)
Cc1ccc(C)c(SCC(=O)OCC(=O)N2CC(C)OC(C)C2)c1 (configuration not stated) | > 35 µM (inactive)
O=C(Nc1ncccc1O)c1ccc(S(=O)(=O)Nc2ccccc2)cc1 | 9.18 µM
COc1ccc(/C=C/C(=O)NCCSCc2ccco2)cc1OC | > 35 µM (inactive)
COc1ccc(N2CCN(C(=O)CN(C)S(=O)(=O)c3cc(C)ccc3OC)CC2)cc1 | > 35 µM (inactive)
CS(=O)(=O)c1cccc(C(=O)N(CCc2ccccc2)Cc2cccs2)c1 | > 35 µM (inactive)
C=CCc1cccc(/C=N/NC(=O)c2ccc3nc[nH]c3c2)c1O | 34.6 µM
CCN(CC)S(=O)(=O)c1ccc(N2CCOCC2)c(NC(=O)c2cccc3ccccc23)c1 | > 35 µM (inactive)
CC(C)CC(NC(=O)c1ccccc1NC(=O)c1ccccc1)C(=O)O (configuration not stated) | > 35 µM (inactive)
Cc1ccc2nc(SCC(=O)c3ccccc3)nc(=O)n2c1 | > 35 µM (inactive)
Cc1cc(Cl)n2c(nc3cc(F)c(F)cc32)c1C#N | > 35 µM (inactive)
CN(C)c1ccc(S(=O)(=O)NCC(=O)OCC(=O)Nc2cc(Cl)cc(Cl)c2)cc1[N+](=O)[O-] | > 35 µM (inactive)
CCOc1ccc(N2CC(C(=O)Nc3ccccc3C(=O)NC3CC3)CC2=O)cc1 (configuration not stated) | > 35 µM (inactive)
CCn1c(C)nc2cc(C(=O)N/N=C/c3cccc(O)c3O)ccc21 | 24.6 µM
COc1ccc(S(=O)(=O)N2CCOC2CNC(=O)C(=O)NCc2ccc3c(c2)OCO3)cc1OC (configuration not stated) | > 35 µM (inactive)
COC(=O)/C(C#N)=C/c1c(N2CCN(Cc3ccc4c(c3)OCO4)CC2)nc2c(C)cccn2c1=O | > 35 µM (inactive)
CC1(C)Cc2c(C#N)c(SCCC#N)nc(N3CCOCC3)c2CO1 | > 35 µM (inactive)
Cc1ccc(S(=O)(=O)N2CC(C)N(C(=O)N3CCOCC3)C2C)cc1 (configuration not stated) | > 35 µM (inactive)
CC(C)N(c1ccccc1)c1ncnc(NCCC(=O)O)c1[N+](=O)[O-] | > 35 µM (inactive)
CCCC(C)NC(=O)CN1C(=O)NC2(CCc3ccccc32)C1=O (configuration not stated) | > 35 µM (inactive)
CCC(=O)NC(=S)Nc1ccc(NC(=O)c2cccc([N+](=O)[O-])c2C)cc1 | > 35 µM (inactive)
Cc1ccc(NC(=O)N2CCC(NC(=O)c3cccc(C)c3)CC2)cc1 | > 35 µM (inactive)
CCC(=O)NC(c1ccc(OC)cc1)c1cc(Cl)c2cccnc2c1O (configuration not stated) | 11.8 µM
Cc1ccc(NC(=S)N(Cc2cccs2)Cc2cc3cccc(C)c3[nH]c2=O)cc1 | > 35 µM (inactive)
Cc1cccc(NC(=O)C2CC(=O)NC(Nc3nc4ccccc4s3)=N2)c1 (configuration not stated) | > 35 µM (inactive)

Structure (SMILES) | EC50
O=C(O)c1ccccc1Nc1ccc([N+](=O)[O-])cc1C(=O)O | > 35 µM (inactive)
COc1cccc2sc(Nc3nc(-c4ccccn4)cs3)nc12 | 6.13 µM
O=C(NC1CCCC1)c1cc(-c2ccccc2)on1 | 16.3 µM
N#C/C(=C(/O)c1ccc(F)cc1)c1nc2ccccc2s1 | > 35 µM (inactive)
CN1CCN(Cc2cc(COCc3ccccc3)c3cccnc3c2O)CC1 | 7.82 µM
COc1cccc(Nc2n[nH]c(=S)s2)c1 | > 35 µM (inactive)
O=C(N/N=C(\c1ccccc1)c1ccccn1)c1ccccc1Cl | 11.2 µM
O=C(Nc1ccccc1O)c1ccc(NS(=O)(=O)c2cccc3cccnc23)cc1 | 6.84 µM
O=S(=O)(/C=C/c1ccccc1)N1CCNCC1 | > 35 µM (inactive)
CCOC(=O)C(=Cc1ccc(OCc2ccc([N+](=O)[O-])cc2)c(OC)c1)C(=O)OCC | 7.32 µM
Cc1sc(NC(=O)c2ccco2)c(CN2CCC(C)CC2)c1C | > 35 µM (inactive)
Cc1ccc(C)c(-n2nnnc2Sc2nnnn2-c2ccccc2)c1 | > 35 µM (inactive)
Oc1ccc(Br)cc1/C=N/Nc1ccccn1 | 7.01 µM
Cc1cccc(NC(=O)Cc2noc3ccccc23)c1 | > 35 µM (inactive)
COc1ccc(OC)c(NC2=NCCCS2)c1 | > 35 µM (inactive)
COc1ccccc1NC(=O)c1nc(S(=O)(=O)Cc2ccccc2)ncc1Cl | > 35 µM (inactive)
CCCCC(=O)NC(c1ccccc1OC)c1ccc2cccnc2c1O (configuration not stated) | 6.81 µM
Cc1ccc(/C(=N/Nc2ncnc3ccccc23)C(=O)O)cc1 | > 35 µM (inactive)
O=C(NNC(=S)Nc1ccc(Cl)c(Cl)c1)c1ccccn1 | 6.71 µM
O=C(CSc1nc2ccccc2c(=O)[nH]1)Nc1ccc(Br)cc1 | > 35 µM (inactive)
O=C(NS(=O)(=O)c1ccc2c(c1)OCCO2)c1ccccc1 | > 35 µM (inactive)
CCc1nc(N2CCN(C(=O)c3ccco3)CC2)c2c3c(sc2n1)CCCC3 | > 35 µM (inactive)
O=C(CN1CCCc2ccccc21)N/N=C/c1c(O)ccc2ccccc12 | 36.5 µM
COc1ccc(NC(=O)c2cccc(NC(=O)c3ccco3)c2)c(OC)c1 | > 35 µM (inactive)
CN(C)c1nc(-c2ccccn2)nnc1-c1ccccc1 | 6.68 µM
COc1ccccc1-c1cc(C(F)(F)F)nc(S(=O)(=O)CCCC(=O)NC(C)C)n1 | > 35 µM (inactive)

Structure (SMILES) | EC50
Oc1ccc(CCNc2c3ccccc3nc3ccccc23)cc1O | > 35 µM (inactive)
Cc1cc(C)n(-c2nc3ccccc3c(=O)n2OCC#N)n1 | 11.4 µM
COc1ccc(CC(NC(C)=O)C(=O)NC2CCN(C(=O)Nc3ccc(Cl)cc3)CC2)cc1OC (configuration not stated) | > 35 µM (inactive)
CCCC(=O)NC(c1ccccc1)c1ccc2cccnc2c1O (configuration not stated) | 4.71 µM
Cc1ccc(C2(O)CN(c3ccccc3C)C3=[N+]2CCS3)cc1 (configuration not stated) | > 35 µM (inactive)
Cc1ccc(NC(=O)Cn2cnc3c(=O)n(C)c(=O)n(C)c32)c(C)c1 | > 35 µM (inactive)
O=C(N/N=C/c1c(O)ccc2ccccc12)c1cccc(C(F)(F)F)c1 | 8.56 µM
CC(=O)Nc1nc2ccccc2n1CCOc1ccccc1Cl | > 35 µM (inactive)
COC(=O)c1ccc(C(C(=O)NCc2ccccc2)N(Cc2ccco2)C(=O)c2cnccn2)cc1 (configuration not stated) | > 35 µM (inactive)
COc1cc2c(cc1OC)C(c1ccccc1)N(S(C)(=O)=O)CC2 (configuration not stated) | > 35 µM (inactive)
COc1ccc(C2(C)NC(=O)NC2=O)cc1OC (configuration not stated) | > 35 µM (inactive)
CCOc1ccccc1N1CCN(C(=S)NC(=O)C23CC4CC(CC(C4)C2)C3)CC1 | > 35 µM (inactive)
Cc1cc(C)n(-c2ccc3cccc(NS(C)(=O)=O)c3n2)n1 | 5.59 µM
COc1ccc2cc3cc(C(=O)N4CCN(c5ccccn5)CC4)oc3nc2c1 | > 35 µM (inactive)
O=C(O)c1ccc2cc(-c3ccccc3)[nH]c2c1 | > 35 µM (inactive)
O=C(NCCCN1CCOCC1)c1cc(-c2cccs2)on1 | 12.3 µM
CCOC(=O)c1c(NC(=O)CN2C(=O)NC3(CCC(C)CC3)C2=O)sc(C)c1-c1ccc(C)cc1 (configuration not stated) | 7.59 µM
Nc1nonc1-n1nnc(C(=O)N/N=C/c2cc(Br)ccc2O)c1CSC1=NCCS1 | 29.6 µM
Nc1ccnn1-c1ccccc1 | > 35 µM (inactive)
COc1ccc2nc(C)cc(SCC(=O)N/N=C/c3ccc(O)cc3O)c2c1 | 8.74 µM
COc1ccc(NC(=S)NCc2cccnc2)cc1 | > 35 µM (inactive)
Oc1ccc2ccccc2c1/C=N/Nc1nnc(-c2ncc[nH]2)c2ccccc12 | 8.6 µM
CCC(C)c1ccc2oc(-c3ccc(NC(=O)Cn4cnc5c(=O)n(C)c(=O)n(C)c54)cc3)nc2c1 (configuration not stated) | 6.07 µM
Cc1ccc(/C=C(\C#N)c2nn(-c3ccccc3)c(N)c2C#N)cc1 | > 35 µM (inactive)
COc1ccc(C(CC(=O)NCc2ccccc2)Sc2n[nH]c(-c3ccccc3)n2)cc1 (configuration not stated) | 33 µM
c1ccc2c(NCCc3c[nH]c4ccccc34)c3ccccc3nc2c1 | > 35 µM (inactive)

Structure (SMILES) | EC50
C(/CCc1ccccc1)=N\Nc1nc2ccccc2[nH]1 | 35.9 µM
O=C(CCc1ccccc1)Nc1ccnn1C1CCN(C/C=C/c2ccccc2)CC1 | > 35 µM (inactive)
CCOc1ccc(-c2c(C(=O)N/N=C/c3cccnc3)nnn2-c2nonc2N)cc1 | > 35 µM (inactive)
CC(C)[C@H](NC(=O)c1ccco1)C(=O)OCc1cc(=O)n2c(n1)sc1ccccc12 | > 35 µM (inactive)
COc1cccc(/C=N/NC(=O)CNC(=O)C(c2ccccc2)c2ccccc2)c1O | > 35 µM (inactive)
O=C(N/N=C/c1cc2cc3c(cc2nc1Cl)OCO3)c1ccncc1 | > 35 µM (inactive)
COc1cc2c(cc1OC)C(C)N(S(=O)(=O)c1ccc(Cl)nc1)CC2 (configuration not stated) | > 35 µM (inactive)
CC(C)c1cc(-c2cc(C(=O)NCc3ccccc3)on2)nc(NC2CCCC2)n1 | > 35 µM (inactive)
COc1ccc2c(c1)-c1nc(NC(=O)c3ccco3)sc1CC2 | > 35 µM (inactive)
C/C(=N\OCc1nc2ccccc2c(=O)n1/N=C/c1cc(C)cc([N+](=O)[O-])c1O)c1ccccc1 | > 35 µM (inactive)
CCOC(=O)N1CCN(C(=O)c2ccc(Cn3c(=S)[nH]c4cc(OCC)c(OCC)cc4c3=O)cc2)CC1 | 5.64 µM
Cc1ccccc1N=Nc1ccc(O)c2ncccc12 | 5.04 µM
COc1ccc(C(=O)C2CCCN(C(=O)C3CCOCC3)C2)cc1OC (configuration not stated) | > 35 µM (inactive)
O=C(O)c1ccc(N2C(=O)CSC2=S)cc1 | > 35 µM (inactive)
Cc1ccc(Oc2ncc(CN3CC(C)OC(C)C3)s2)cc1 (configuration not stated) | > 35 µM (inactive)
CC(=O)Nc1nc(C)c(-c2csc(Nc3ccccn3)n2)s1 | > 35 µM (inactive)
CCCCOC(=O)c1ccc(NC(=S)NC(=O)c2c(Br)c(C)nn2C)cc1 | > 35 µM (inactive)
Nc1nc(SCC(=O)N2CCCC2)[nH]c(=O)c1-c1ccccc1 | > 35 µM (inactive)
O=C(N/N=C/c1sc2ccccc2c1O)c1cccc2ccccc12 | 31.4 µM
CCC1CCCCN1Cc1c(O)ccc2c(=O)c(-c3ccccc3OC)coc12 (configuration not stated) | > 35 µM (inactive)
FC(F)(F)c1ccc(CSc2ccccn2)cc1 | > 35 µM (inactive)
CCOC(=O)/C(C#N)=C/C=C1\C=Cc2ccccc2N1CC | > 35 µM (inactive)
CC(C)(C)c1csc(NNC(=O)c2ccc(Br)cc2)n1 | 29 µM
Cc1ccccc1NC(=O)CN(C)S(=O)(=O)c1ccc(-c2ccc(=O)[nH]n2)s1 | > 35 µM (inactive)
